The values below come from patent US20120289501A1, “Benzene-fused 6-membered oxygen-containing heterocyclic derivatives of bicyclic heteroaryls” (NOVARTIS AG, priority 2009, published 2012).

Common to all, as to assay: Enzymatic kinase assay (filter-binding / flashplate, 33P incorporation)
Holding throughout (format): biochemical
Conditions in all cases: enzymatic kinase selectivity

In one experiment the target is RET (Homo sapiens, UniProt P07949). How it is done: (§1) Two methods were used to analyze phosphorylated peptides and proteins produced by the listed tyrosine and serine/threonine-specific protein kinases: either using a filter-binding assay (FB), or using a flashplate assay (FP). The activities of protein kinases were assayed in the presence or absence of inhibitors, by measuring the incorporation of ^33P from [γ^33P]ATP into appropriate substrates.
(§2) 96-well polypropylene microplates were used to assay the activity in the FB mode. To determine the inhibitory activity of compounds 10 μL of compound dilutions were pipetted into 96-well plates followed by the addition of 10 μL of assay mix and 10 μL of individual enzymes. With the addition of the enzymes the reactions were initiated and continued at RT. The reactions were stopped by the addition of 50 μL of a 125 mM EDTA solution pH 8.0. The final concentration of DMSO in the enzyme assays was 1%.
(§3) Flashplates are available as 96-well standard (STFPs) or as streptavidin-(SAFPs) or nickel coated FPs (NiFPs) from Perkin Elmer. STFPs are 96-well polystyrene microplates in which the interior of each well is permanently coated with a thin layer of polystyrene-based scintillant. Streptavidin flashplates (SAFP) are 96 or 384-well STFPs coated with streptavidin. SAFPs are suitable for a wide variety of assay applications which utilize biotinylated capture molecules. NiFP or nickel chelate flashplates are 96- or 384-well STFPs coated with nickel chelate. NiFPs are designed for in-plate, radiometric assays which utilize 4- or 6-histidine tagged proteins and peptides.
(§4) All kinase assays were performed in STFPs for 60 mins at RT and stopped with 50 μL of 0.5% H3PO4 except PKA which were carried out in polypropylene 96- and 384-well plates, respectively. PKA assays were stopped with 50 μL of 125 mM EDTA (pH 8.0) and 50 μL were transferred to either SAFPs or NIFPs to capture the biotinylated or histidine tagged peptides phosphorylated by PKA (SAFP) or by NiFPs. All wells were then washed three times with 200 μL of 0.5% H3PO4 and the plates were dried at room temperature. The plates were sealed and counted in a microplate scintillation counter (TopCount NXT, TopCount NXT HTS). The final concentration of DMSO in the enzyme assays was 1%.

In another experiment the target is IGF1R (Homo sapiens, UniProt P08069). How it is done:
as §1, §2, §3, §4

Another experiment concerns the target GSK3beta (Homo sapiens, UniProt P49841). As to the method: as §1, §2, §3, §4
In another experiment the target is PDGFRa (Homo sapiens, UniProt P16234). How it is done: as §1, §2, §3, §4
In the next experiment the target is MK2 (Homo sapiens, UniProt P49137). As to the method:
as §1, §2, §3, §4

A further experiment deals with EphA4 (Homo sapiens, UniProt P54764). As to the method: as §1, §2, §3, §4
Another experiment has as its target TYK2 (Homo sapiens, UniProt P29597). As to the method:
as §1, §2, §3, §4

For a further experiment, the target named is T1, Aurora A (Homo sapiens, UniProt O14965).
T1 sequence (O14965 1-403): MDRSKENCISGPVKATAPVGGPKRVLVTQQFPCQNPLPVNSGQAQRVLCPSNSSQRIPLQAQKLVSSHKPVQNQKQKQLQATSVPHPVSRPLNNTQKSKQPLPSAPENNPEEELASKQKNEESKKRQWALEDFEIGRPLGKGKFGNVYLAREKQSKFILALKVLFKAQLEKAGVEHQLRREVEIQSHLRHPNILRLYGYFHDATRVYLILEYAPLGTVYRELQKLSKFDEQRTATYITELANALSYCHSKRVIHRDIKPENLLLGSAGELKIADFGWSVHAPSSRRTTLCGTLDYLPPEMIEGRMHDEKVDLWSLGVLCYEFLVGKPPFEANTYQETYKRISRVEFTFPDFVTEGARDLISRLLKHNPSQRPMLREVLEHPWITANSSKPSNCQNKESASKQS
As to the method:
as §1, §2, §3, §4

Another experiment addresses ERK2 (Homo sapiens, UniProt P28482). How it is done: as §1, §2, §3, §4
The next experiment concerns the target COT1 (Homo sapiens, UniProt P41279). As to the method:
as §1, §2, §3, §4

A further experiment addresses HER2 (Homo sapiens, UniProt P04626). How it is done: as §1, §2, §3, §4
A further experiment deals with KDR (Homo sapiens, UniProt P35968). How it is done: as §1, §2, §3, §4
A further experiment concerns the target P38a (Homo sapiens, UniProt Q16539). As to the method: as §1, §2, §3, §4
The target in another experiment is FGFR-4 (Homo sapiens, UniProt P22455). How it is done: as §1, §2, §3, §4
FGFR-4, sequence (P22455 22-802, species assumed): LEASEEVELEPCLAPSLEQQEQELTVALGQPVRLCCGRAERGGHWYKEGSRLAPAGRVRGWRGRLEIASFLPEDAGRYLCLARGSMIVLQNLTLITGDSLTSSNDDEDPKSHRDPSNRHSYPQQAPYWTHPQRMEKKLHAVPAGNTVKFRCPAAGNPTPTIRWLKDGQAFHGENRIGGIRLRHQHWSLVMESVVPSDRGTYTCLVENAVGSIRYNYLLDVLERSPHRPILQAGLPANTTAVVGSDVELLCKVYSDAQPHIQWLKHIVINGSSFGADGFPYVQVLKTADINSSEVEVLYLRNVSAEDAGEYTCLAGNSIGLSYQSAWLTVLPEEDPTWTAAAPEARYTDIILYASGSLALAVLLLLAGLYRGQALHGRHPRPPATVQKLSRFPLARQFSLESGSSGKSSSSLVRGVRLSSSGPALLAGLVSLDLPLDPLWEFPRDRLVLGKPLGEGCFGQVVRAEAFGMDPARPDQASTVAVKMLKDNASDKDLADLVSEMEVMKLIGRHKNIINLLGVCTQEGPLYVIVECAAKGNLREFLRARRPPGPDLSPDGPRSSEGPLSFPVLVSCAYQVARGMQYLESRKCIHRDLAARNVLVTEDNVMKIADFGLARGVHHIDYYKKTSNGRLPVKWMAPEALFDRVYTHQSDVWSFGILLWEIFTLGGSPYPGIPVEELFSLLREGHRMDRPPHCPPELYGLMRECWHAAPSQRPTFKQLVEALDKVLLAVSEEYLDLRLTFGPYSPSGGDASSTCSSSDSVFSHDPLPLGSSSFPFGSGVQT
Another experiment deals with InsR (Homo sapiens, UniProt P06213). As to the method: as §1, §2, §3, §4
The target of the next experiment is LCK (Homo sapiens, UniProt P06239). As to the method:
as §1, §2, §3, §4

Another experiment addresses cABLT315 (Homo sapiens, UniProt P00519, T315I). As to the method:
as §1, §2, §3, §4

In another experiment the target is CDK2A (Homo sapiens, UniProt P24941). How it is done:
as §1, §2, §3, §4

LCK, sequence (P06239 whole entry, species assumed): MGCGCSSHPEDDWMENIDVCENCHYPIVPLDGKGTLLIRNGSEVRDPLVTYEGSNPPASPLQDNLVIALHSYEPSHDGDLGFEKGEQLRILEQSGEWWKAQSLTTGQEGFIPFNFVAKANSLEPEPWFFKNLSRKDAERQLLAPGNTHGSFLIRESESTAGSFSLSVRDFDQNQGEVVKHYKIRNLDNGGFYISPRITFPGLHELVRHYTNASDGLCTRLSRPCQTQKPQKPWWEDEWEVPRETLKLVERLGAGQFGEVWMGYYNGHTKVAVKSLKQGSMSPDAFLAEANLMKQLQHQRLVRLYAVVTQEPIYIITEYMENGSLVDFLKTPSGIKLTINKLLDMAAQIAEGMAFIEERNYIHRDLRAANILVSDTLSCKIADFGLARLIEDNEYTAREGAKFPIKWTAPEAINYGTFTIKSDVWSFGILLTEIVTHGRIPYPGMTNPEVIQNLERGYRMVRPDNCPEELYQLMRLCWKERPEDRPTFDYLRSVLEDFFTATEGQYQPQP
TYK2, sequence (P29597 whole entry, species assumed): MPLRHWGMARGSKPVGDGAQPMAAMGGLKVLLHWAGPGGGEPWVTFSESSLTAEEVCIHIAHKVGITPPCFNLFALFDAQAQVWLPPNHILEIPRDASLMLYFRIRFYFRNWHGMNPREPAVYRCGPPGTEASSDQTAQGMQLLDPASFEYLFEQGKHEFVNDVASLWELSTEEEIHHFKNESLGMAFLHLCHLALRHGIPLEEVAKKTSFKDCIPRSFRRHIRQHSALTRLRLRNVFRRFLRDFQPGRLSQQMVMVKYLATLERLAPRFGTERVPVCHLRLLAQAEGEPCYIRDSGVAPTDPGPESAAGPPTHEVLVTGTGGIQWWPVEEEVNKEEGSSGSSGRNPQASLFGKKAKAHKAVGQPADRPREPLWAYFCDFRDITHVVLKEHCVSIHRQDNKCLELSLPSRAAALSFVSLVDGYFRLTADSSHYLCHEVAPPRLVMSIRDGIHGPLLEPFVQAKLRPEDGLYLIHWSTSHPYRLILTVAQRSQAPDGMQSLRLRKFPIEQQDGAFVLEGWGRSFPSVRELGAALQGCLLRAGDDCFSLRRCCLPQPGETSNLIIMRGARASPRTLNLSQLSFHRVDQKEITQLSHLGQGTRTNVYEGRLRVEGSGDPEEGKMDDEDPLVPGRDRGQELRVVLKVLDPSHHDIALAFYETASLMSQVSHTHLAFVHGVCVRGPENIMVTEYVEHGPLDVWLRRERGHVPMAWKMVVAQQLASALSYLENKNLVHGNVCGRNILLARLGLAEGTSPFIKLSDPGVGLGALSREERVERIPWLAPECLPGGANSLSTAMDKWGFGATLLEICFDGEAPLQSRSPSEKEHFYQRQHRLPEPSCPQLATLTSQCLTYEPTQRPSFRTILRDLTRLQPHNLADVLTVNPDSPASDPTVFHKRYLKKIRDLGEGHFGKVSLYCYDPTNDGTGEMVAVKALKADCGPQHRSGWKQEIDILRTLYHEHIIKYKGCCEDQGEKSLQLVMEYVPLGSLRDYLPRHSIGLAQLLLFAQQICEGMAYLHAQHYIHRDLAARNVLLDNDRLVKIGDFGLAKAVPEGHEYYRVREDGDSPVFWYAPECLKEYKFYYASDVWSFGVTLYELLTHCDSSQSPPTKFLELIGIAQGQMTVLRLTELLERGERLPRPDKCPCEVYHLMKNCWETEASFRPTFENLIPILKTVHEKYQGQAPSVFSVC
ERK2, sequence (P28482 whole entry, species assumed): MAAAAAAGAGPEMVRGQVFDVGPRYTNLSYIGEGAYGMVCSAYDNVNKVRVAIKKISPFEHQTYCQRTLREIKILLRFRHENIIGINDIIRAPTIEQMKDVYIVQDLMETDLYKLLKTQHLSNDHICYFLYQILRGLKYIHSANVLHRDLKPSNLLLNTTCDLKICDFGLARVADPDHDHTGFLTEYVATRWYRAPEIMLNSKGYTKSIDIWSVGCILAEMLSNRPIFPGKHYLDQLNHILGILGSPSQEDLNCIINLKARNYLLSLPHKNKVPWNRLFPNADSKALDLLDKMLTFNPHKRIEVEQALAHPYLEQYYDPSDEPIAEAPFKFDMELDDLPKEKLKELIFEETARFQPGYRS
HER2, sequence (P04626 23-1255, species assumed): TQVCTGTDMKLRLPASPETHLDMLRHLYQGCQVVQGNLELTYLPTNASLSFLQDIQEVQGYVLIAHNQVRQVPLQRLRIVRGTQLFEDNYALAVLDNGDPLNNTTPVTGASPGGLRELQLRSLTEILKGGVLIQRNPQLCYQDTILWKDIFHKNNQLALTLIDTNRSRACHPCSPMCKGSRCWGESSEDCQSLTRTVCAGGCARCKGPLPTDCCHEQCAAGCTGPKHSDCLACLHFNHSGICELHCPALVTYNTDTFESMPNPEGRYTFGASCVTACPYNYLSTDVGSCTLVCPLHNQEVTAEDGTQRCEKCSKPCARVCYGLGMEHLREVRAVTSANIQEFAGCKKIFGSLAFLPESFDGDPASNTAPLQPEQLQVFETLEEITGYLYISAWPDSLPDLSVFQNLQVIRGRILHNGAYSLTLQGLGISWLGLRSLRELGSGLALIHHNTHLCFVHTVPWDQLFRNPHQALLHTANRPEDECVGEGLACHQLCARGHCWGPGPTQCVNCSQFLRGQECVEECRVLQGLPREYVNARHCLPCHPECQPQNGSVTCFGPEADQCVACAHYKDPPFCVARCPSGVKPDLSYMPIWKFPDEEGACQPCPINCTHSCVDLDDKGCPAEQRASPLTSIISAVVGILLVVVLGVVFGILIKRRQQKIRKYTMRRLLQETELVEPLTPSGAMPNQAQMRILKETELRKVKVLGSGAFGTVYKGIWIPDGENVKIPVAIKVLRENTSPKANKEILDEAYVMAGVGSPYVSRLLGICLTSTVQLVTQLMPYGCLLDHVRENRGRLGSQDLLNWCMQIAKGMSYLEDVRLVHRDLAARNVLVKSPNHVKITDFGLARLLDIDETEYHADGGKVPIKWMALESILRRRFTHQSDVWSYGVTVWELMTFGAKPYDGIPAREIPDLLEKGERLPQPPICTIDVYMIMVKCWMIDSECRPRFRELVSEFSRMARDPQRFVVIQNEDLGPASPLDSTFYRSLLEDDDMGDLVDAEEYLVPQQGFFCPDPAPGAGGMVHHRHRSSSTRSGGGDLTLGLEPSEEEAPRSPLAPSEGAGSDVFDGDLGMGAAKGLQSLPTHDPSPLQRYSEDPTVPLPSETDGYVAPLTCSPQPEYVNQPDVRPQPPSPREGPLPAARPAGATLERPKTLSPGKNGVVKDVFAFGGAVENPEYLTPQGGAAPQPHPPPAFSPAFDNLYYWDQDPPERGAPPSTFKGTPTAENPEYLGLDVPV
COT1, sequence (P41279 whole entry): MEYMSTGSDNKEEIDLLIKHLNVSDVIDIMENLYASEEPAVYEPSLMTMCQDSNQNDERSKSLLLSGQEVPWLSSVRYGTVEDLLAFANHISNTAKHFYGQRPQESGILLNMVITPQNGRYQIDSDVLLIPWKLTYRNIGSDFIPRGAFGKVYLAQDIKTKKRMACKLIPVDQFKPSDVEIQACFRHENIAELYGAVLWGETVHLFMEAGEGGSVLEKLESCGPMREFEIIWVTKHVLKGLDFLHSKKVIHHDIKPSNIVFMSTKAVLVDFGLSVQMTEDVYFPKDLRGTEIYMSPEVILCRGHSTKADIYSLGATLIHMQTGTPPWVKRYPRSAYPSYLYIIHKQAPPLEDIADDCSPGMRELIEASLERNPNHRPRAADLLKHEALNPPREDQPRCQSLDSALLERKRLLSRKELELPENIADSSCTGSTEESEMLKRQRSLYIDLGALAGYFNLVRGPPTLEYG
P38a, sequence (Q16539 whole entry): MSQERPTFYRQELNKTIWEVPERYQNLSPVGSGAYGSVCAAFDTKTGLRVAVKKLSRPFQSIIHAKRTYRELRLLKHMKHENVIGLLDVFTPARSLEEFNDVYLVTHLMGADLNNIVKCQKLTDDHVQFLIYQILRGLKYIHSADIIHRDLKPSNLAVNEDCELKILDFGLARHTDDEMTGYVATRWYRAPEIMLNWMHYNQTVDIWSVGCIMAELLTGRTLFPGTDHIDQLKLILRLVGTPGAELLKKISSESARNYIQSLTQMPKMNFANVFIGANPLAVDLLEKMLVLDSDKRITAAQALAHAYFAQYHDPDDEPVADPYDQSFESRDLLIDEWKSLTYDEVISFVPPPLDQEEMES

Regarding `CC(=O)NC[C@H]1C[C@@H](n2cc(-c3ccc4c(c3)OC(c3ccccc3)CC4)c3c(N)ncnc32)C1` (mixture of isomers) [Example 16, (R,S)—N-{cis-3-[4-Amino-5-(2-phenyl-chroman-7-yl)-pyrrolo[2,3-d]pyrimidin-7-yl]-cyclobutylmethyl}-acetamide], the half-inhibitory concentration (IC50) on RET was 360 nM; on IGF1R, 50 nM; on GSK3beta, greater than 10000 nM; on PDGFRa it was 1200 nM; at MK2 it was greater than 10000 nM; on EphA4 it was greater than 10000 nM. The half-inhibitory concentration (IC50) on TYK2 was greater than 10000 nM; on Aurora A, 4300 nM; on ERK2, greater than 10000 nM; on COT1 it was greater than 10000 nM; at HER2 it was greater than 10000 nM; at KDR it was 160 nM. The IC50 was greater than 10000 nM at P38a; greater than 10000 nM on FGFR-4; 780 nM at InsR; 4460 nM at LCK; 8000 nM at cABLT315; greater than 10000 nM at CDK2A.

For `Nc1ncnc2c1c(-c1ccc3c(c1)OC(c1ccccc1)C=C3)cn2[C@H]1C[C@@H](CN2CCS(=O)(=O)CC2)C1` (mixture of isomers) [Example 21, (R,S)-7-[cis-3-(1,1-Dioxo-1-thiomorpholin-4-ylmethyl)-cyclobutyl]-5-(2-phenyl-2H-chromen-7-yl)-7H-pyrrolo[2,3-d]pyrimidin-4-ylamine], the IC50 at RET was 25 nM; on IGF1R, 7.8 nM; at GSK3beta, greater than 10000 nM; on PDGFRa, 770 nM; on MK2, greater than 10000 nM; on EphA4, greater than 10000 nM. For the same compound, the half-inhibitory concentration (IC50) is greater than 10000 nM at TYK2; 4000 nM at Aurora A; greater than 10000 nM on ERK2; greater than 10000 nM on COT1; greater than 10000 nM on HER2; 110 nM on KDR. The IC50 was greater than 10000 nM on P38a; greater than 10000 nM on FGFR-4; 73 nM at InsR; 3600 nM at LCK; greater than 10000 nM on cABLT315; greater than 10000 nM on CDK2A.

With `CC(=O)N1CCN([C@H]2C[C@@H](n3cc(-c4ccc5c(c4)OC(c4ccccc4)CC5)c4c(N)ncnc43)C2)CC1` (relative stereo) [Example 38, 1-(4-{cis-3-[4-Amino-5-(2-phenyl-chroman-7-yl)-pyrrolo[2,3-d]pyrimidin-7-yl]-cyclobutyl}-piperazin-1-yl)-ethanone], the IC50 on RET was 410 nM; on IGF1R, 17 nM; on GSK3beta, greater than 10000 nM; on PDGFRa, greater than 10000 nM; on MK2 it was greater than 10000 nM; on EphA4, greater than 10000 nM. Besides, the IC50 at TYK2 was greater than 10000 nM; at Aurora A, greater than 10000 nM; at ERK2, greater than 10000 nM; at COT1, greater than 10000 nM; on HER2 it was greater than 10000 nM; at KDR, 240 nM. Further, the IC50 at P38a was greater than 10000 nM; on FGFR-4 it was greater than 10000 nM; on InsR it was 100 nM; at LCK, 3800 nM; at cABLT315 it was greater than 10000 nM; at CDK2A, greater than 10000 nM.

For `Nc1ncnc2c1c(-c1ccc3c(c1)OC(c1ccccc1)CC3)cn2C1CC(O)(CO)C1` (single isomer, unassigned) [Example 26], the IC50 on RET is 760 nM; on IGF1R, 58 nM; at GSK3beta it was greater than 10000 nM; at PDGFRa, greater than 10000 nM; on MK2 it was greater than 10000 nM; at EphA4, greater than 10000 nM. The half-maximal inhibitory concentration (IC50) on TYK2 is greater than 10000 nM; at Aurora A, 8800 nM; at ERK2, greater than 10000 nM; on COT1 it was greater than 10000 nM; at HER2 it was greater than 10000 nM; at KDR, 250 nM. Further, the IC50 is greater than 10000 nM at P38a; 8900 nM at FGFR-4; 1450 nM at InsR; 6150 nM on LCK; 4350 nM at cABLT315; greater than 10000 nM on CDK2A.

A word on the IC50: it is the concentration needed to halve the response being measured. High values mean lower potency, low ones higher potency.
